This passage reports Ki results from US8569281B2, “Compounds and their administration for treating a neurodegenerative disease as well as a method for identifying a compound capable of inhibiting a kinase, such as LRRK” (Medical Research Council Technology, priority 2010, dated 2013).

The Ki is a dissociation constant, usually derived from enzyme kinetics or from competition with a known ligand.

The target of the first assay is LRRK2 (Homo sapiens (Human), UniProt Q5S007). Description: In Vitro LRRK2 Assay (LabChip 3000, fluorescently-labeled peptide substrate). The format is biochemical. The following applies: ATP 130 μM, substrate 1 μM, 2 hours, ambient temperature; LRRK2 variant not given; read-out: Ki (μM), affinity values for LRRK2. How it is done: This assay was used to determine a compound's potency in inhibiting activity of LRRK2 by determining, Kiapp, IC50, or percent inhibition values. In a polypropylene plate, LRRK2, fluorescently-labeled peptide substrate, ATP and test compound were incubated together. Using a LabChip 3000 (Caliper Life Sciences), after the reaction the substrate was separated by capillary electrophoresis into two populations: phosphorylated and unphosphorylated. The relative amounts of each were quantitated by fluorescence intensity. LRRK2 Ki was determined according to the equation: Y=V0*(1−((x+Ki*(1+S/Km)+Et)/(2*Et)−(((x+Ki*(1+S/Km)+Et)^2−(4*Et*x))^0.5)/(2*Et))).
Chain of LRRK2 (Q5S007 whole entry G2019S): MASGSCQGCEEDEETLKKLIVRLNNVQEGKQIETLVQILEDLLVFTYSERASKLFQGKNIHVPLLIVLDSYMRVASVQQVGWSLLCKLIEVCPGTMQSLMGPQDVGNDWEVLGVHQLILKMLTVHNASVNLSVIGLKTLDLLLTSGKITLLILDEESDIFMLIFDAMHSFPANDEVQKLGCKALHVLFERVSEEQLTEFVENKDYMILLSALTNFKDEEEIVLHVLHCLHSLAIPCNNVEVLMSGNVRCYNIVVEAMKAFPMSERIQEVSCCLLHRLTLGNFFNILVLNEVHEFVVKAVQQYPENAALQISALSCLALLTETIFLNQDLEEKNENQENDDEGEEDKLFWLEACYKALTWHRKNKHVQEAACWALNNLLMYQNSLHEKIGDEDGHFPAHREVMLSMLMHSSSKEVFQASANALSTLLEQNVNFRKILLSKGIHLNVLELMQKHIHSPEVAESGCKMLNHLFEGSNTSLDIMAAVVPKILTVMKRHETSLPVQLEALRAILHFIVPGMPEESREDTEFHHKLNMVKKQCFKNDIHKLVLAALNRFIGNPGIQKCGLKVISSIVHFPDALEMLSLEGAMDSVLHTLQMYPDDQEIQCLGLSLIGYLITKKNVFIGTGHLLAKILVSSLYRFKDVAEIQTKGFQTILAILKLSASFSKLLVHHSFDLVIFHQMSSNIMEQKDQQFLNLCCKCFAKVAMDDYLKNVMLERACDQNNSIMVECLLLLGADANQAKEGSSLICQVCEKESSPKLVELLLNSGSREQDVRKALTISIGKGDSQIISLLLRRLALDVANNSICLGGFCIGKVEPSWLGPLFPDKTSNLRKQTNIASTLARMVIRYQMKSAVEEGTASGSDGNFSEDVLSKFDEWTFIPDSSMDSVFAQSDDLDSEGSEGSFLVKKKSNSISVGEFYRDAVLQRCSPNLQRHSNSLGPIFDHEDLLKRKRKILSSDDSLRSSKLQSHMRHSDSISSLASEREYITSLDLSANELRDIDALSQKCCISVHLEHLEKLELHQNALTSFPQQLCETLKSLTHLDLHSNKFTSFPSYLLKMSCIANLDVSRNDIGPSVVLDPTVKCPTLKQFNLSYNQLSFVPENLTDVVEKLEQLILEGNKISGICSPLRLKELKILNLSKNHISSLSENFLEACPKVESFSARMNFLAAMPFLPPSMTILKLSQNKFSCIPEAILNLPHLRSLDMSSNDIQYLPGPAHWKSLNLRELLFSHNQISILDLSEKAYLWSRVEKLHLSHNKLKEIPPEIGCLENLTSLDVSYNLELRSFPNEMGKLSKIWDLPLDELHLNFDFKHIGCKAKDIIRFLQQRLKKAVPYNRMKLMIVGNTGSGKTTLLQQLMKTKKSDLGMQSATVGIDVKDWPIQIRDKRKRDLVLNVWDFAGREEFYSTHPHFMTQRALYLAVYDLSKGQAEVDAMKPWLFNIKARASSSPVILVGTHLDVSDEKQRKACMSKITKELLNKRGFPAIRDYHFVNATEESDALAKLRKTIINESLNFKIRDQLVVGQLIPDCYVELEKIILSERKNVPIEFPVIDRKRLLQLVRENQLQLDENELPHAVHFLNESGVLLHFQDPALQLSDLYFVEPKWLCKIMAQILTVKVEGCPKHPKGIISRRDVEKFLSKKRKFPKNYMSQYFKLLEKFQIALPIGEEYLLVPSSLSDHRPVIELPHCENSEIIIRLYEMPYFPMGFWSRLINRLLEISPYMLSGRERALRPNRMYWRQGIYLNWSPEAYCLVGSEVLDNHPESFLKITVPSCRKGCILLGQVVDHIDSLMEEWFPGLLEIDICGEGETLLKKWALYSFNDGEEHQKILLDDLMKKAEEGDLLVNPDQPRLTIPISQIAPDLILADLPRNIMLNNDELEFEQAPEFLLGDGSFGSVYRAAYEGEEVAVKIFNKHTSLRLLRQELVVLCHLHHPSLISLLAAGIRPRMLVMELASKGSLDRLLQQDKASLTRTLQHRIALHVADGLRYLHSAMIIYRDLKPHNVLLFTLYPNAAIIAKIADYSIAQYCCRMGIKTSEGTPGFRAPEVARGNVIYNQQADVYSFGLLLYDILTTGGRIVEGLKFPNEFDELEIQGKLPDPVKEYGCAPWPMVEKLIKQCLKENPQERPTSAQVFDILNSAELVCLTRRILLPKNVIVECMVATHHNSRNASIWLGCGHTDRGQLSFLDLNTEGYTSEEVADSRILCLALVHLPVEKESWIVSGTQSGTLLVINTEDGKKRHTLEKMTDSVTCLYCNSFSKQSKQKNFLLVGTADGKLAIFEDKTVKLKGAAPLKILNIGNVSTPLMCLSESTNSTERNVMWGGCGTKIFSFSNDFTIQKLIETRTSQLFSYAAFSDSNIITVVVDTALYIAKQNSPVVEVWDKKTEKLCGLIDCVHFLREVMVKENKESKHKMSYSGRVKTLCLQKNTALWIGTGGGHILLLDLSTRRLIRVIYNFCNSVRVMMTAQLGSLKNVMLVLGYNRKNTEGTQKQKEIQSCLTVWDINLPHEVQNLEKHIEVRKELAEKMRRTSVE
Ki values in Table 4 and elsewhere herein are shown in μM.
Assay conditions and materials used were as follows:
Compound Plate Preparation:
For serial dilutions, 34.6 μl DMSO was added to columns 3-24.
Total and Blank Preparation:
In Complete Reaction Buffer, substrate was diluted to 4 μM. Equal volumes of Complete Reaction Buffer and 4 μM substrate were combined to obtain the blank. Equal volumes of Complete Reaction Buffer and 4 μM substrate were combined and to the combined solution was added 2× final LRRK2 concentration.
To a 50 μl polypropylene plate, 5 μl/well buffer/substrate was added by hand to Blank wells. A Biomek FX was used to start the kinase reaction (“PLK SAR 23 ATP”). The following were added to the appropriate wells: • 2 μl compound+23 μl ATP; • 5 μl/well compound/ATP in Assay Plate; • 5 μl/well kinase/substrate in Assay Plate;
The plate was incubated for 2 hours in the dark. Biomek FX was used to stop the kinase reaction (“PLK Stop”), and 10 μl/well Stop solution was added to the Assay Plate. Results were read on the LabChip 3000.
The LabChip 3000 was run using the job “LRRK2 IC50” with the following job settings: • Pressure: −1.4 psi • Downstream voltage: −500 V • Upstream voltage: −2350 V • Post sample buffer sip time: 75 seconds • Post dye buffer sip time: 75 seconds • Final delay time: 200 seconds Parkinson's Disease Animal Model
For `Cn1ncc2cc(-c3n[nH]c4ccnc(OC5CCOCC5)c34)ccc21` [Example 140, 3-(1-Methyl-1H-indazol-5-yl)-4-(tetrahydro-2H-pyran-4-yloxy)-1H-pyrazolo[4,3-c]pyridine], the Ki was determined as 0.013 µM.

Turning to `COc1nccc2n[nH]c(-c3cccc(S(C)(=O)=O)c3)c12` [Example 167, 4-Methoxy-3-(3-(methylsulfonyl)phenyl)-1H-pyrazolo[4,3-c]pyridine], the Ki came out at 0.045 µM.

Take `COc1nccc2[nH]nc(-c3cnn(C4CCOC4)c3)c12` (stereo not drawn) [Example 234, 4-methoxy-3-(1-(tetrahydrofuran-3-yl)-1H-pyrazol-4-yl)-1H-pyrazolo[4,3-c]pyridine]: the inhibitory constant (Ki) came out at 0.023 µM.

As to `Fc1c(-c2n[nH]c3ccnc(OC4CCOCC4)c23)ccnc1N1CCOCC1` [Example 103, 4-(3-Fluoro-4-(4-(tetrahydro-2H-pyran-4-yloxy)-1H-pyrazolo[4,3-c]pyridin-3-yl)pyridin-2-yl)morpholine], the inhibitory constant (Ki) amounted to 0.046 µM.

On to `CN(C)C(=O)c1cccc(-c2cc(-c3n[nH]c4ccnc(OC5CCOCC5)c34)ccn2)c1` [Example 203, N,N-dimethyl-3-(4-(4-(tetrahydro-2H-pyran-4-yloxy)-1H-pyrazolo[4,3-c]pyridin-3-yl)pyridin-2-yl)benzamide], for which the inhibition constant (Ki) came out at 0.018 µM.

`Clc1ccccc1C#Cc1[nH]nc2ccnc(OC3CCOCC3)c12` [Example 132, 3-((2-Chlorophenyl)ethynyl)-4-(tetrahydro-2H-pyran-4-yloxy)-1H-pyrazolo[4,3-c]pyridine]: the inhibitory constant (Ki) came out at 0.005 µM.

For the compound `CNC(=O)c1cccc(-c2n[nH]c3ccnc(OC4CCOCC4)c23)c1` [Example 160, N-Methyl-3-(4-(tetrahydro-2H-pyran-4-yloxy)-1H-pyrazolo[4,3-c]pyridin-3-yl)benzamide], the Ki worked out at 0.025 µM.

Take `c1cc(-c2n[nH]c3ccnc(OC4CCOCC4)c23)cc(NC2COC2)n1` [Example 113, N-(Oxetan-3-yl)-4-(4-(tetrahydro-2H-pyran-4-yloxy)-1H-pyrazolo[4,3-c]pyridin-3-yl)pyridin-2-amine]: the Ki came to 0.136 µM.

With `CS(=O)(=O)c1cccc(-c2[nH]nc3ccnc(OC4CCOCC4)c23)c1` [Example 165, 3-(3-(Methylsulfonyl)phenyl)-4-(tetrahydro-2H-pyran-4-yloxy)-1H-pyrazolo[4,3-c]pyridine], the inhibitory constant (Ki) worked out at 0.029 µM.

Consider `c1cncc(-c2cc(-c3n[nH]c4ccnc(OC5CCOCC5)c34)ccn2)c1` [Example 197, 3-(2,3′-bipyridin-4-yl)-4-(tetrahydro-2H-pyran-4-yloxy)-1H-pyrazolo[4,3-c]pyridine], for which the inhibitory constant (Ki) turned out to be 0.021 µM.

For the compound `CN(C)C(=O)c1ccc(-c2[nH]nc3ccnc(OC4CCOCC4)c23)cc1F` [Example 135, 2-Fluoro-N,N-dimethyl-4-(4-(tetrahydro-2H-pyran-4-yloxy)-1H-pyrazolo[4,3-c]pyridin-3-yl)benzamide], the Ki is 0.104 µM.

As for `COc1nccc2[nH]nc(-c3ccnc(N4[C@@H]5CC[C@H]4COC5)c3)c12` [Example 117, 8-(4-(4-Methoxy-1H-pyrazolo[4,3-c]pyridin-3-yl)pyridin-2-yl)-3-oxa-8-azabicyclo[3.2.1]octane], the Ki was 0.08 µM.

For `CC(=O)Nc1ccc(-c2cc(-c3n[nH]c4ccnc(OC5CCOCC5)c34)ccn2)cc1` [Example 210, N-(4-(4-(4-(tetrahydro-2H-pyran-4-yloxy)-1H-pyrazolo[4,3-c]pyridin-3-yl)pyridin-2-yl)phenyl)acetamide], the inhibition constant (Ki) stood at 0.011 µM.

On to `COC(=O)c1[nH]nc2ccnc(NC3CCOCC3)c12` [Example 185, methyl 4-(tetrahydro-2H-pyran-4-ylamino)-1H-pyrazolo[4,3-c]pyridine-3-carboxylate], for which the Ki worked out at 0.1 µM.

`N#Cc1cncc(-c2n[nH]c3ccnc(OC4CCOCC4)c23)c1` [Example 156]: the Ki came out at 0.172 µM.

Take `c1cc2[nH]nc(-c3cnn(CC4CCC4)c3)c2c(OC2CCCCC2)n1` [Example 41, 3-[1-(Cyclobutylmethyl)-1H-pyrazol-4-yl]-4-(cyclohexyloxy)-1H-pyrazolo[4,3-c]pyridine]: the inhibition constant (Ki) stood at 0.055 µM.

Consider `c1cc2n[nH]c(C3CC3)c2c(OC2CCOCC2)n1` [Example 28, 3-Cyclopropyl-4-(tetrahydro-2H-pyran-4-yloxy)-1H-pyrazolo[4,3-c]pyridine], for which the inhibitory constant (Ki) was 0.035 µM.

For `COc1nccc2n[nH]c(-c3ccc(S(C)(=O)=O)cc3)c12` [Example 173, 4-methoxy-3-(4-(methylsulfonyl)phenyl)-1H-pyrazolo[4,3-c] pyridine], the inhibitory constant (Ki) worked out at 0.09 µM.

Turning to `CC(C)n1cc(-c2n[nH]c3ccnc(OC4CCOCC4)c23)cc1C(=O)N1CCC1` [Example 218, Azetidin-1-yl-{1-isopropyl-4-[4-(tetrahydro-pyran-4-yloxy)-1H-pyrazolo[4,3-c]pyridin-3-yl]-1H-pyrrol-2-yl}-methanone], the Ki turned out to be 0.008 µM.

Regarding `Cc1n[nH]c2ccnc(OC3CCCC3)c12` [Example 196, 4-(cyclopentyloxy)-3-methyl-1H-pyrazolo[4,3-c]pyridine], the inhibition constant (Ki) was 0.858 µM.

Turning to `COc1nccc2[nH]nc(-c3ccnc(N4C[C@@H](C)O[C@@H](C)C4)c3)c12` [Example 238, (2S,6R)-4-(4-(4-methoxy-1H-pyrazolo[4,3-c]pyridin-3-yl)pyridin-2-yl)-2,6-dimethylmorpholine], the inhibitory constant (Ki) was found to be 0.025 µM.

`CC1CCCN(C(=O)CCc2[nH]nc3ccnc(NC4CCOCC4)c23)C1` (stereo in doubt) [Example 2, 1-[(3R)-3-methylpiperidin-1-yl]-3-[4-(tetrahydro-2H-pyran-4-ylamino)-1H-pyrazolo-[4,3-c]pyridin-3-yl]propan-1-one]: the Ki is 0.034 µM.

`COc1nccc2n[nH]c(-c3ccc(C(=O)N4CCOCC4)c(Cl)c3)c12` [Example 109, (2-Chloro-4-(4-methoxy-1H-pyrazolo[4,3-c]pyridin-3-yl)phenyl)(morpholino)methanone]: the Ki turned out to be 0.209 µM.

As to `O=C(c1ccc(-c2[nH]nc3ccnc(OC4CCOCC4)c23)cc1)N1CCOCC1` [Example 133, Morpholino(4-(4-(tetrahydro-2H-pyran-4-yloxy)-1H-pyrazolo[4,3-c]pyridin-3-yl)phenyl)methanone], the inhibition constant Ki came to 0.076 µM.

Regarding `CC(=O)Nc1ccc(-c2cc(-c3n[nH]c4ccnc(OC5CCOCC5)c34)ccn2)cn1` [Example 207, N-(4-(4-(tetrahydro-2H-pyran-4-yloxy)-1H-pyrazolo[4,3-c]pyridin-3-yl)-2,3′-bipyridin-6′-yl)acetamide], the Ki came out at 0.021 µM.

Regarding `COc1cc(Nc2[nH]nc3ccnc(OC4CCOCC4)c23)ccn1` [Example 162, N-(2-methoxypyridin-4-yl)-4-(tetrahydro-2H-pyran-4-yloxy)-1H-pyrazolo[4,3-c]pyridin-3-amine], the inhibitory constant (Ki) turned out to be 0.04 µM.

For the compound `COc1nccc2[nH]nc(-c3ccnc(C(F)(F)F)c3)c12` [Example 108, 4-Methoxy-3-(2-(trifluoromethyl)pyridin-4-yl)-1H-pyrazolo[4,3-c]pyridine], the Ki is 0.075 µM.

For `COc1nccc2[nH]nc(-c3cnn(CC4(C)COC4)c3)c12` [Example 89, 4-Methoxy-3-(1-((3-methyloxetan-3-yl)methyl)-1H-pyrazol-4-yl)-1H-pyrazolo[4,3-c]pyridine], the Ki was determined as 0.108 µM.

Take `O=C(CCc1[nH]nc2ccnc(OC3CCCCC3)c12)N1CCC[C@H](c2ccccc2)C1` [Example 6, 3-[4-(Cyclohexyloxy)-1H-pyrazolo[4,3-c]pyridin-3-yl]-1-[(3R)-3-phenylpiperidin-1-yl]propan-1-one]: the inhibition constant (Ki) amounted to 0.014 µM.

In the case of `c1cc2[nH]nc(-c3cnn(CC4CCOCC4)c3)c2c(OC2CCOCC2)n1` [Example 93, 3-(1-((Tetrahydro-2H-pyran-4-yl)methyl)-1H-pyrazol-4-yl)-4-(tetrahydro-2H-pyran-4-yloxy)-1H-pyrazolo[4,3-c]pyridine], the Ki stood at 0.011 µM.

Consider `CN(C)c1cccc(-c2[nH]nc3ccnc(OC4CCOCC4)c23)c1` [Example 153, N,N-Dimethyl-3-(4-(tetrahydro-2H-pyran-4-yloxy)-1H-pyrazolo[4,3-c]pyridin-3-yl)aniline], for which the Ki came out at 0.05 µM.

`O=C(c1cc(-c2n[nH]c3ccnc(OC4CCOCC4)c23)ccn1)N1CCOCC1` [Example 73, Morpholino(4-(4-(tetrahydro-2H-pyran-4-yloxy)-1H-pyrazolo[4,3-c]pyridin-3-yl)pyridin-2-yl)methanone]: the Ki came out at 0.221 µM.

The same assay, now with this note: read-out: Ki (μM), affinity values for LRRK2.
“3-(1-(Oxetan-3-yl)-1H-benzo[d]imidazol-6-yl)-4-(tetrahydro-2H-pyran-4-yloxy)-1H-pyrazolo[4,3-c]pyridine [Example 124]”: the inhibitory constant (Ki) was 0.019 µM.
